Experimental data published in paper PMC12067145 (ACS Medicinal Chemistry Letters, 2025).
pIC50: −log10 of the molar value.

Key:
[1] = Plasma protein binding (rat); type: in vitro ADME; settings: pH 7.4, read-out: PPB rat
Procedure: (§1) 0.3% DMSO - ΔRatio of 1 µM control compound)x100
In vitro Plasma protein binding and Brain homogenate binding: Determination of fraction unbound (f u) in plasma was conducted in vitro via equilibrium dialysis using HTDialysis (HTD) membrane plates. The top half of the plate was filled with 100 uL of Dubelco’s Phosphate Buffered Saline, pH 7.4 (DPBS). Compounds were diluted into plasma from each species (5 µM final concentration), which was aliquoted in triplicate to the ‘bottom half’ of the prepared HTD plate wells. The HTD plate was sealed and incubated for 6 hours at 37 °C. Following incubation, each well (both top and bottom halves) were transferred (20 µL) to the corresponding wells of a 96-shallow-well (V-bottom) plate. The daughter plates were then matrix-matched (DPBS side wells received equal volume of plasma, and plasma side wells received equal volume of DPBS), and extraction solution (120 µL; acetonitrile containing 50 nM carbamazepine as IS) was added to all wells of both daughter plates to precipitate protein and extract test article. The plates were then sealed and centrifuged (3500 rcf) for 10 minutes at ambient temperature. […]
The unbound fraction (f u) was calculated following the equation below, and mean values for each species were calculated from 3 replicates. […] Fraction unbound for both plasma and brain samples was determined using Equation 4.

[2] = Brain homogenate binding (mouse); type: in vitro ADME
Procedure: as §1
In vitro Plasma protein binding and Brain homogenate binding: Determination of fraction unbound (f u) in plasma was conducted in vitro via equilibrium dialysis using HTDialysis (HTD) membrane plates. The top half of the plate was filled with 100 uL of Dubelco’s Phosphate Buffered Saline, pH 7.4 (DPBS). Compounds were diluted into plasma from each species (5 µM final concentration), which was aliquoted in triplicate to the ‘bottom half’ of the prepared HTD plate wells. The HTD plate was sealed and incubated for 6 hours at 37 °C. […]
The unbound fraction (f u) was calculated following the equation below, and mean values for each species were calculated from 3 replicates. […] Fraction unbound for both plasma and brain samples was determined using Equation 4. […]
The diluted fraction unbound (fu2) in brain was calculated in the same manner by using brain homogenate rather than plasma. Undiluted fraction unbound for the brain was calculated using […]
were incubated in 100 mM potassium phosphate pH 7.4 buffer with 3 mM MgCl2 at 37 °C with constant shaking. […] The in vitro half-life (T 1/2, min, Eq. 1), intrinsic clearance (CLint, mL/min/kg, Eq. 2), and subsequent predicted hepatic clearance (CLhep, mL/min/kg, Eq. 3) were determined employing the following equations: […]

[3] = Aqueous solubility; type: physicochemical
[4] = target: TREK-1 (Mus musculus, UniProt P97438); assay: Mouse manual patch clamp (MPC); type: cell-based
Sequence of TREK-1 (P97438 whole entry): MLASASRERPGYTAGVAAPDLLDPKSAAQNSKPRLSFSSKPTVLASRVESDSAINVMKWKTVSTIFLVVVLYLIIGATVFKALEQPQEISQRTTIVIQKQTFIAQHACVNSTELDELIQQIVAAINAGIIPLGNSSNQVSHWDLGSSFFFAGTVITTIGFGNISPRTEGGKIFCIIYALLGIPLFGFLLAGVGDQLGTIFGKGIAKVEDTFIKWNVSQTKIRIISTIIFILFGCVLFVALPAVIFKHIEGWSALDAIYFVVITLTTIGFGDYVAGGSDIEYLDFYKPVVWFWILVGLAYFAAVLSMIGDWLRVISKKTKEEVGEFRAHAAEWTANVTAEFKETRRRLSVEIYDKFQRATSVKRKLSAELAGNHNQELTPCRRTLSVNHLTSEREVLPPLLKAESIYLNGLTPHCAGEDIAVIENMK

[5] = target: Adrenergic β2 (Homo sapiens, UniProt P07550); assay: Eurofins lead profiling screen (radioligand binding)
[6] = target: Bradykinin B2 (Homo sapiens, UniProt P30411); assay: as above
Sequence of Bradykinin B2 (P30411 whole entry): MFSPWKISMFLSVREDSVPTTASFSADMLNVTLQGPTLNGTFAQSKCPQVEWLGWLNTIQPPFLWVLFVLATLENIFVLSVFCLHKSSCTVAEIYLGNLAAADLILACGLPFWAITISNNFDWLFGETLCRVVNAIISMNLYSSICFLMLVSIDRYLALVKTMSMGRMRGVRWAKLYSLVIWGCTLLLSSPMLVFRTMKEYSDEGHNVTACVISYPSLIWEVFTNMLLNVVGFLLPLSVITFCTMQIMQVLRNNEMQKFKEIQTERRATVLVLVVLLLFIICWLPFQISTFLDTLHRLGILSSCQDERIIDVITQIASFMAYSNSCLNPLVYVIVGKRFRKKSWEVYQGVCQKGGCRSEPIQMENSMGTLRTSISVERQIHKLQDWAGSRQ

[7] = target: Calcium Channel L-Type, Benzothiazepine (Rattus norvegicus, UniProt P22002); assay: as above
[8] = target: Calcium Channel N-Type (Rattus norvegicus, UniProt Q02294); assay: as above
Sequence of Calcium Channel N-Type (Q02294 whole entry): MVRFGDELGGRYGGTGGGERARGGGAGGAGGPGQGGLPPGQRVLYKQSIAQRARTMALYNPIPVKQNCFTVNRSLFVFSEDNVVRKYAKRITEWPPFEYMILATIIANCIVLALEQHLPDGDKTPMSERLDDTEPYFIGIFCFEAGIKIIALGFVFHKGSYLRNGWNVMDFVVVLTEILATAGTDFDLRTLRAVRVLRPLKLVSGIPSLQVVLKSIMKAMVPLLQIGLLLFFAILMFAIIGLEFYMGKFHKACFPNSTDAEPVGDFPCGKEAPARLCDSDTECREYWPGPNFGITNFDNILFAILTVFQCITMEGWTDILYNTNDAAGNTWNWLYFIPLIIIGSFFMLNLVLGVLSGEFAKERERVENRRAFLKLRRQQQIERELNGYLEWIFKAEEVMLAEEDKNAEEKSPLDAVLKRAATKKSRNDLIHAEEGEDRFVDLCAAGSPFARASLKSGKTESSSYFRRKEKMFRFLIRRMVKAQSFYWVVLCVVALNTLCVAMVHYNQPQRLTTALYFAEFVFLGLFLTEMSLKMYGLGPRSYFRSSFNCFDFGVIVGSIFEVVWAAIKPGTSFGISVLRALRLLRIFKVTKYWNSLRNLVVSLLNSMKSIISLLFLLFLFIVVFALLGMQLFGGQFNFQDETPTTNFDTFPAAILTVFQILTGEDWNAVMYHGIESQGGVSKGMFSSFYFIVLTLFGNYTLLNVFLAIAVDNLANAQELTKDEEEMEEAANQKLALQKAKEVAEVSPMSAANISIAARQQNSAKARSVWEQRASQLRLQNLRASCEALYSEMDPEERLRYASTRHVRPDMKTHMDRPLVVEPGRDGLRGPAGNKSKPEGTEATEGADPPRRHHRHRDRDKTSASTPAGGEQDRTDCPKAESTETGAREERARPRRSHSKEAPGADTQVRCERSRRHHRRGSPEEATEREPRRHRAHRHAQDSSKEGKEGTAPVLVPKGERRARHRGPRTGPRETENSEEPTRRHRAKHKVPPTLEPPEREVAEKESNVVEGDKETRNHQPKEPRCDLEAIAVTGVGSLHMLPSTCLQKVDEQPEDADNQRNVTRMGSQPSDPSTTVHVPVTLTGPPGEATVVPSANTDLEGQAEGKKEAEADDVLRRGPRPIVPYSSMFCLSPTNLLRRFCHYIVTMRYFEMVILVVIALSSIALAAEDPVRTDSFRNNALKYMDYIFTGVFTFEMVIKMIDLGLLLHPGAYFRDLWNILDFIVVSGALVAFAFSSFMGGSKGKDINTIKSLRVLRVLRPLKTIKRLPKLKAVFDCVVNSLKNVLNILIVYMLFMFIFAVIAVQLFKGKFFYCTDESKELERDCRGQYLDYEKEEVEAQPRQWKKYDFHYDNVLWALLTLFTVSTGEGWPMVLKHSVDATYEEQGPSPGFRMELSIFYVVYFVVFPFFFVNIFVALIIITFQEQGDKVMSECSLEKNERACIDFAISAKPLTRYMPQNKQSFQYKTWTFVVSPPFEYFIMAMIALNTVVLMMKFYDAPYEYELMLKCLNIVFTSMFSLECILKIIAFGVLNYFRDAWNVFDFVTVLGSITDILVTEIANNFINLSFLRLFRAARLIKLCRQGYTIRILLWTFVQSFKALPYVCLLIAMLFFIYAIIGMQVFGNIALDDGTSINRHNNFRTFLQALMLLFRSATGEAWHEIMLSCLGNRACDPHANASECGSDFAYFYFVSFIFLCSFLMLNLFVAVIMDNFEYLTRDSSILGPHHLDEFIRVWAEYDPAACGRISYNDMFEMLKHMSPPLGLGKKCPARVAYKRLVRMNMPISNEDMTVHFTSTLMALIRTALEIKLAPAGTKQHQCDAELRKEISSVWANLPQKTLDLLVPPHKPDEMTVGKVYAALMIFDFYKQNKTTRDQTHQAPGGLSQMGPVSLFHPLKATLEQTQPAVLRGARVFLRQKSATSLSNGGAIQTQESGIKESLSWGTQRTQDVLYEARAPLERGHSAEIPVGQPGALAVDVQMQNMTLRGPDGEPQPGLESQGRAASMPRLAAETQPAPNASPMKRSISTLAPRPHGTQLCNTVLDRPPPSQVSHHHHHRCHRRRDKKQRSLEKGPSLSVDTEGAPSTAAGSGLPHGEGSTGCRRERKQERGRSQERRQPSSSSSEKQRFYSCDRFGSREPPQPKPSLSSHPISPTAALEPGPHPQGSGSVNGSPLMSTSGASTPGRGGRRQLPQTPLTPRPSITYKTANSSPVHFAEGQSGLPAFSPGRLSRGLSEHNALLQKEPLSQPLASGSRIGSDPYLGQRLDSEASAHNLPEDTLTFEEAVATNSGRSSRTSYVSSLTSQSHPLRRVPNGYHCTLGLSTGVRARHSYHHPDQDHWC

[9] = target: Melatonin MT1 (Homo sapiens, UniProt P48039); assay: as above
[10] = target: Muscarinic M2 (Homo sapiens, UniProt P08172); assay: as above
[11] = target: Nicotinic Acetylcholine α1, Bungarotoxin (Homo sapiens, UniProt P02708+P07510+Q07001); assay: biochemical; type: binding; settings: read-out: % Inhibition at 10 µM
Sequence of Nicotinic Acetylcholine α1, Bungarotoxin (P11230 24-501): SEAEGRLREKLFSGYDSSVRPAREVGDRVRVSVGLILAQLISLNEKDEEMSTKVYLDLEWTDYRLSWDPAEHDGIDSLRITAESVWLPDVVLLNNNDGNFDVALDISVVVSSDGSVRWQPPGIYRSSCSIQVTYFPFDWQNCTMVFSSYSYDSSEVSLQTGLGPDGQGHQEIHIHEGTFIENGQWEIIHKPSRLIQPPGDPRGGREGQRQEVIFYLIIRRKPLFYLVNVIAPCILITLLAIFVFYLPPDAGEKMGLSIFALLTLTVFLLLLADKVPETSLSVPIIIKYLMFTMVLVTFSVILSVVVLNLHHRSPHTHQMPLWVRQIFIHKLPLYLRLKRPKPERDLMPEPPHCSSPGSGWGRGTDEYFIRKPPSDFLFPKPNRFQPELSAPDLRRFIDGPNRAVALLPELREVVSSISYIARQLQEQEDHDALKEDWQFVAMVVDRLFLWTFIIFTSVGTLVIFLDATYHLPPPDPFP
Sequence of Nicotinic Acetylcholine α1, Bungarotoxin (P02708 21-457): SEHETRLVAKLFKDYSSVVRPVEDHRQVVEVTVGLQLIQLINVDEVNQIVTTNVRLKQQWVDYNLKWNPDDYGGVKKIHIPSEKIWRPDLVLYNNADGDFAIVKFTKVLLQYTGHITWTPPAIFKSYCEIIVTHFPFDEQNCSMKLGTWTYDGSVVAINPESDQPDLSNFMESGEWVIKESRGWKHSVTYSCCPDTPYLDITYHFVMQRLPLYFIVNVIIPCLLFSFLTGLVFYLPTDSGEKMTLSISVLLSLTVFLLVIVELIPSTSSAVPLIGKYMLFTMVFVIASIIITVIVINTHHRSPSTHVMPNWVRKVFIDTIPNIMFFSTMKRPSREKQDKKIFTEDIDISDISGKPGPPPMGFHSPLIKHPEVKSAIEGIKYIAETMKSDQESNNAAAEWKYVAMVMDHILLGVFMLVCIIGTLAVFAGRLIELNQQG
Sequence of Nicotinic Acetylcholine α1, Bungarotoxin (P07510 23-517): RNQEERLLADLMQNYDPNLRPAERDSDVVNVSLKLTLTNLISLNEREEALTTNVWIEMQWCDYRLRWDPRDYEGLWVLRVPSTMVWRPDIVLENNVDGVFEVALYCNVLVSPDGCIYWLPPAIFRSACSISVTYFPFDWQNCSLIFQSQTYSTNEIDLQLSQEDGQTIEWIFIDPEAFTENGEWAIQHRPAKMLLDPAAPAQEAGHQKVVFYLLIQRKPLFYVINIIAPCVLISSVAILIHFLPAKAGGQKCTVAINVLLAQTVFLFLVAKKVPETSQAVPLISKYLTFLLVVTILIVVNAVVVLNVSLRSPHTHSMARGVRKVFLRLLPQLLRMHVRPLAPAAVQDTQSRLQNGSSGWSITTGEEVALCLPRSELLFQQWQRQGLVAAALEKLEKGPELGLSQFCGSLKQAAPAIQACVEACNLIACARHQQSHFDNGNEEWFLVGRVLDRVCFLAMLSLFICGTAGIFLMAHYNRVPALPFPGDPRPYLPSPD
Sequence of Nicotinic Acetylcholine α1, Bungarotoxin (Q07001 22-517): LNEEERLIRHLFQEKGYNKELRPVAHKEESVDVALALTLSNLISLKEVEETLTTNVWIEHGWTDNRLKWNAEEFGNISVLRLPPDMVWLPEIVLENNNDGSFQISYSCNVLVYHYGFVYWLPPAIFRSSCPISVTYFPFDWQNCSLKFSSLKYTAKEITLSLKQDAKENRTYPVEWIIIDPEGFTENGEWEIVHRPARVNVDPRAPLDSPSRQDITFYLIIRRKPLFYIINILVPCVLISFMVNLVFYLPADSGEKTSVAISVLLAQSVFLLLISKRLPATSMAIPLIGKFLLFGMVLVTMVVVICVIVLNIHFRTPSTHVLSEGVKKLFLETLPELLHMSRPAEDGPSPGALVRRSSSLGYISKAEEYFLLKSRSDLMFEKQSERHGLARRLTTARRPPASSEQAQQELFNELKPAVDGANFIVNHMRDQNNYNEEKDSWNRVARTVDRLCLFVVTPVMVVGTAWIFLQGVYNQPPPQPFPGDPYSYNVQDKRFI

[12] = target: Platelet Activating Factor (PAF) (Homo sapiens, UniProt P25105); assay: Eurofins lead profiling screen (radioligand binding)

Structure (SMILES) | fraction unbound at 6 h, 5 µM [1] | brain homogenate binding mouse [2] [%] | solubility [3] [µM] | pIC50 [4] | inhibition at 10 µM [5] [%] | inhibition at 10 µM [6] [%] | inhibition at 10 µM [7] [%] | inhibition at 10 µM [8] [%] | inhibition at 10 µM [9] [%] | inhibition at 10 µM [10] [%] | inhibition at 10 µM [11] [%] | inhibition at 10 µM [12] [%]
Cc1cc(C#Cc2ccc(F)cc2)cnc1NC(=O)c1cc(NC(=O)OC(C)(C)C)ccc1Cl [Compound 14c] | 0.001 | 99.4 | < 5 | 7.17 | – | – | – | – | – | – | – | –
O=C(NCc1ccc(OC(F)(F)F)cc1F)c1ccc2ncnn2c1 [ONO-2920632] | – | – | – | – | 4 | -10 | 56 | 4 | 29 | 0 | -4 | 26
